Experimental data reported in PubChem BioAssay AID1918994 (Molecular Pharmacology Branch, DTP, NCI, 2023).

Test system: 292921-168-R-J2-PDC complex spheroid growth
Assay: Anticancer human tumor 292921-168-R-J2-PDC patient-derived pancreatic carcinoma cell line growth inhibition [AhR]
Conditions: for IC50: curve of first compound; for viability, T/C: stronger effect = lower value
Outline: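 Spheroids combined tumor cells with HUVEC endothelial cells and human MSCs as stroma. AhR antagonists were paired with standard or investigational drugs, each dosed in half-log steps down from near clinical Cmax, or from 10 microM where Cmax was unknown.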

[1] = second compound 0.1 µM, first compound 0.0316 µM
[2] = second compound 0.1 µM, first compound 0.1 µM
[3] = second compound 0.1 µM, first compound 0.316 µM
[4] = second compound 0.1 µM, first compound 1 µM
[5] = second compound 0.1 µM, first compound 3.16 µM
[6] = second compound 0.1 µM, first compound 10 µM
[7] = second compound 0.316 µM, first compound 0.0316 µM
[8] = second compound 0.316 µM, first compound 0.1 µM
[9] = second compound 0.316 µM, first compound 0.316 µM
[10] = second compound 0.316 µM, first compound 1 µM
[11] = second compound 0.316 µM, first compound 3.16 µM
[12] = second compound 0.316 µM, first compound 10 µM
[13] = second compound 1 µM, first compound 0.0316 µM
[14] = second compound 1 µM, first compound 0.1 µM
[15] = second compound 1 µM, first compound 0.316 µM
[16] = second compound 1 µM, first compound 1 µM
[17] = second compound 1 µM, first compound 3.16 µM
[18] = second compound 1 µM, first compound 10 µM
[19] = second compound 3.16 µM, first compound 0.0316 µM
[20] = second compound 3.16 µM, first compound 0.1 µM
[21] = second compound 3.16 µM, first compound 0.316 µM
[22] = second compound 3.16 µM, first compound 1 µM
[23] = second compound 3.16 µM, first compound 3.16 µM
[24] = second compound 3.16 µM, first compound 10 µM
[25] = second compound 10 µM, first compound 0.0316 µM
[26] = second compound 10 µM, first compound 0.1 µM
[27] = second compound 10 µM, first compound 0.316 µM
[28] = second compound 10 µM, first compound 1 µM
[29] = second compound 10 µM, first compound 3.16 µM
[30] = second compound 10 µM, first compound 10 µM
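Note: spheroids exposed to compounds for seven days after three days of growth.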

| IC50 (second compound 0.1 µM) [µM] | IC50 (second compound 0.316 µM) [µM] | IC50 (second compound 1 µM) [µM] | IC50 (second compound 3.16 µM) [µM] | IC50 (second compound 10 µM) [µM] | Compound | viability, T/C [1] [%] | viability, T/C [2] [%] | viability, T/C [3] [%] | viability, T/C [4] [%] | viability, T/C [5] [%] | viability, T/C [6] [%] | viability, T/C [7] [%] | viability, T/C [8] [%] | viability, T/C [9] [%] | viability, T/C [10] [%] | viability, T/C [11] [%] | viability, T/C [12] [%] | viability, T/C [13] [%] | viability, T/C [14] [%] | viability, T/C [15] [%] | other results |
| --- | --- | --- | --- | --- | --- | --- | --- | --- | --- | --- | --- | --- | --- | --- | --- | --- | --- | --- | --- | --- | --- |
| 6.87 | 6.72 | 6.79 | 5.56 | 3.33 | CC1(C)CCC(CN2CCN(c3ccc(C(=O)NS(=O)(=O)c4ccc(NCC5CCOCC5)c([N+](=O)[O-])c4)c(Oc4cnc5[nH]ccc5c4)c3)CC2)=C(c2ccc(Cl)cc2)C1 + Cc1cncc(-c2nc(NCCc3c[nH]c4ccccc34)c3ncn(C(C)C)c3n2)c1 | 101 | 96.2 | 92.9 | 105 | 99.4 | 26.2 | 96.6 | 104 | 105 | 90.6 | 95.1 | 26.1 | 80.2 | 91.7 | 90.1 | viability, T/C [16]: 96.5%; viability, T/C [17]: 102%; viability, T/C [18]: 28.6%; viability, T/C [19]: 67.9%; viability, T/C [20]: 76.3%; viability, T/C [21]: 80.6%; viability, T/C [22]: 77.6%; viability, T/C [23]: 79.7%; viability, T/C [24]: 22.3%; viability, T/C [25]: 54.9%; viability, T/C [26]: 52.7%; viability, T/C [27]: 52.9%; viability, T/C [28]: 50%; viability, T/C [29]: 51.4%; viability, T/C [30]: 26.8% |
| 3.61 | 3 | 2.58 | 1.94 | 0.0316 | CC1COCCN1c1cc(C2(S(C)(=N)=O)CC2)nc(-c2ccnc3[nH]ccc23)n1 (stereo not given) + Cc1cncc(-c2nc(NCCc3c[nH]c4ccccc34)c3ncn(C(C)C)c3n2)c1 | 89.8 | 87.6 | 95.8 | 76.9 | 54.2 | 24.7 | 86.5 | 80.5 | 73.3 | 80.2 | 48.6 | 24.7 | 77.2 | 80.6 | 88.4 | viability, T/C [16]: 70%; viability, T/C [17]: 45.9%; viability, T/C [18]: 24.5%; viability, T/C [19]: 63.3%; viability, T/C [20]: 63.3%; viability, T/C [21]: 66.9%; viability, T/C [22]: 59.6%; viability, T/C [23]: 42.6%; viability, T/C [24]: 25.4%; viability, T/C [25]: 48.6%; viability, T/C [26]: 45.9%; viability, T/C [27]: 50%; viability, T/C [28]: 50.4%; viability, T/C [29]: 38.8%; viability, T/C [30]: 29.4% |
